Results reported in ChEMBL document CHEMBL3217573, “Diacrylamides as selective G-quadruplex ligands in in vitro and in vivo assays” (Medchemcomm, 2011).
The source made the active and inactive calls. The rule behind the calls is not given here.

Columns and labels:
MCF7 [1] = test: Cytotoxicity against human MCF7 cells assessed as reduction of cell viability at 2.5 uM after 24 hrs by MTT assay; type: functional
unidentified = test: Selectivity ratio of ligand concentration required to displace thiazole orange from 22AG DNA (unknown origin) to same extent as percentage displacement from ds26 DNA (unknown origin) at 2.5 uM of compound
[2] = Displacement of thiazole orange from 22AG DNA (unknown origin) preincubated for 10 mins measured after 3 mins by fluorescence spectra analysis
[3] = Displacement of thiazole orange from ds26 DNA (unknown origin) preincubated for 10 mins measured after 3 mins by fluorescence spectra analysis
Caco-2 = test: Induction of apoptosis in human Caco2 cells after 48 hrs by MTT assay; type: functional, cell-based
MCF7 [4] = test: Cytotoxicity against human MCF7 cells assessed as reduction of cell viability after 10 days by MTT assay; type: functional, cell-based; details: MCF7, 240 h
MCF7 [5] = test: Cytotoxicity against human MCF7 cells assessed as reduction of cell viability after 10 days by MTT assay relative to control; type: functional
MCF7 [6] = test: Induction of apoptosis in human MCF7 cells after 48 hrs by MTT assay; type: functional, cell-based

Row | Selectivity ratio (unidentified) | Kd [2] [nM] | Kd [3] [nM] | SMILES | Activity (MCF7 [1]) [%] | Activity (Caco-2) | IC50 (MCF7 [4]) [nM] | Activity (MCF7 [5]) [%] | Activity (MCF7 [6])
1 | 0 | 20200 | 290 | O=C(/C=C/c1c2ccccc2c(/C=C/C(=O)N2CCOCC2)c2ccccc12)N1CCOCC1 | 40 | – | – | – | –
2 | 0 | – | 22600 | O=C(/C=C/c1c2ccccc2c(/C=C/C(=O)NC(CO)(CO)CO)c2ccccc12)NC(CO)(CO)CO | – | – | – | – | –
3 | 0.1 | 216000 | 1770 | COc1ccc2cc3[n+](cc2c1OC)CCc1cc2c(cc1-3)OCO2 [BERBERINE] | – | – | – | – | –
4 | 5.6 | 70 | 360 | CC(=O)CC(C)(C)NC(=O)/C=C/c1c2ccccc2c(/C=C/C(=O)NC(C)(C)CC(C)=O)c2ccccc12 | – | – | – | – | –
5 | 5 | 170 | 1760 | O=C(/C=C/c1c2ccccc2c(Br)c2ccccc12)N1CCOCC1 | – | – | – | – | –
6 | 33.3 | 30 | 2090 | NC(=O)/C=C/c1c2ccccc2c(/C=C/C(N)=O)c2ccccc12 | – | inactive | 2500 | >80 | inactive
